Data from publication PMC2191741 (The Journal of Experimental Medicine, 1994).
One block for each molecule: values may come before it.

Experiments:
[1] = system: human polyclonal IgM RF binding to mAb II-481; details: text summary across the individual polyclonal IgM RFs tested
gE of HSV-1 = assay: ELISA of hybridoma supernatants with isolated gE and whole HSV-1; format: binding; details: hybridoma supernatant; isolated gE 5 ug/ml

inhibition of RF binding to mAb II-481 by single inhibitor [1]: No inhibition
Molecule: CIKVAVS [reference compound]

inhibition of RF binding to mAb II-481 by single inhibitor [1]: 62-90%
Molecule: SGVPDRF

inhibition of RF binding to mAb II-481 by single inhibitor [1]: 80-100%
Molecule: HIWWNDN

inhibition of RF binding to mAb II-481 by single inhibitor [1]: complete inhibition
B1: mAb II-481: IgG-2b mouse mAb directed at gE of HSV-1 (antibody, V domains shown)
VH: GILQPSQTLSLTCSFSGFSLTTYGIGVGWIRQPSGKGLEWLAHIWWNDNKFYNTVLKSRLTISRDTSNNQVFLRIASMDTADTATYYCARMRDGAWFAYWGQGTLVTVSA
VL: SLAVSAGEKVTMTCKSSQSVLYSSDHKNYLAWYQQKPGQSPKLLIYWASTRESGVPDRFTGSGSGTDFTLTINNVQTEDLAVYFCHQYLSSFTFGGGTKLEIQ
reactivity with isolated gE and whole HSV-1 by ELISA (gE of HSV-1): strong anti-gE specificity
